Like-named read-outs stand apart in the source and are kept apart here. Values belong to the molecule of their own block, whether it stands above or below them.
Assays:
[1] = Pharmacokinetics study of KDG-0271 in male CD1 mice (Example 4); format: in vivo; conditions: for F: bioavailability vs 1 mg/kg IV; for AUC(0-inf) / AUC(0-t) / Cmax / Tmax / half-life / concentration at 0.25 h / concentration at 0.5 h / concentration at 1 h / concentration at 2 h / concentration at 4 h / concentration at 8 h / MRT inf: mouse, plasma; for MRT inf: read-out: MRTInf_obs
Procedure: (§1) A standard PK study of KDG-0271 was performed in male CD1 mice dosed with a single intravenous, oral or intraperitoneal dose of KDG-0271. The parameters of the PK study are described in Table 26. Dosing solutions were freshly made prior to use, and were in the form of a suspension. […] For IV and IP, after collection, plasma samples from the same time point were pooled, and the pooled samples were analyzed by LC/MS/MS.
Sample preparation and analysis were conducted in accordance with the method described in Example 3.
(§2) BLOQ=Below quantifiable limit of 1 ng/mL. PK parameters were estimated by non-compartmental model using WinNonlin 6.1. The PO bioavailability (F %) was calculated as following:
(§3) AUClast-PO/AUCINF-PO>80%: F=(AUCINF-PO*DoseIV)/(mean AUCINF-IV*DosePO) AUClast-PO/AUCINF-PO≤80% or AUCINF was not available: F=(AUClast-PO*DoseIV)/(mean AUClast-IV*DosePO).
(§4) The IP bioavailability (F %) was calculated as following:
(§5) AUClast-IP/AUCINF-IP>80%: F=(AUCINF-IP*DoseIV)/(mean AUCINF-IV*DoseIP) AUClast-IP/AUCINF-IP≤80% or AUCINF was not available: F=(AUClast-IP*DoseIV)/(mean AUClast-IV*DoseIP).

[2] = Pharmacokinetics study of KDG-0388 in male CD1 mice (Example 2); format: in vivo; conditions: for F: bioavailability vs 1 mg/kg IV; for MRT inf: read-out: MRTInf_obs
Procedure: as §1, with “KDG-0388” for “KDG-0271”, “single” for “single intravenous,”, “KDG-0388.” for “KDG-0271.”, “10.” for “26.”
The desired serial concentrations of working solutions were achieved by diluting stock solution of analyte with 50% acetonitrile in water solution. 5 μL of working solutions (2, 4, 10, 20, 100, 400, 2000, 4000 ng/mL) were added to 10 μL of blank CD1 mouse plasma to achieve calibration standards of 1-2000 ng/mL (1, 2, 5, 10, 50, 200, 1000, 2000 ng/mL) in a total volume of 15 μL. Five quality control (QC) samples at 2 ng/mL, 5 ng/mL, 50 ng/mL, 800 ng/mL and 1600 ng/mL for plasma were prepared independently of those used for the calibration curves. These QC samples were prepared on the day of analysis in the same way as calibration standards.
15 μL standards, 15 μL QC samples and 15 μL unknown samples (10 μL plasma with 5 μL blank solution) were added to 200 μL of acetonitrile containing IS mixture for precipitating protein. Then, the samples were vortexed for 30 seconds. After centrifugation at 4 degrees Celsius, 4000 rpm for 15 minutes, the supernatant was diluted three times with water. 25 μL of diluted supernatant was injected into the LC/MS/MS system for quantitative analysis.
as §2, §3, §4, §5

[3] = 30 mg/kg IP, read-out: Concentration IP_Mean
[4] = 50 mg/kg PO, read-out: Concentration PO_Mean
[5] = male, mouse, plasma, CD1 mice, 1 mg/kg IV
[6] = male, mouse, CD1 mice, plasma, 1 mg/kg IV, read-out: Concentration IV_Mean
[7] = mouse, plasma, male CD1 mice, 200 mg/kg IP
[8] = mouse, plasma, male CD1 mice, 200 mg/kg PO
[9] = mouse, male CD1 mice, plasma, 200 mg/kg IP, read-out: Concentration IP_Mean
[10] = mouse, male CD1 mice, plasma, 200 mg/kg PO, read-out: Concentration PO_Mean

- AUC_%Extrap_obs ([1]; 30 mg/kg IP): 2.65%
- AUClast/D ([1]; 30 mg/kg IP): 174 kg·ng·h/mL/mg
- F ([1]; 30 mg/kg IP): 179%
- AUC_%Extrap_obs ([1]; 50 mg/kg PO): 0.172%
- AUClast/D ([1]; 50 mg/kg PO): 38.1 kg·ng·h/mL/mg
- F ([1]; 50 mg/kg PO): 38.1%
- AUC(0-inf) ([1]; 30 mg/kg IP): 5360 ng·h/mL
- AUC(0-t) ([1]; 30 mg/kg IP): 5220 ng·h/mL
- Cmax ([1]; 30 mg/kg IP): 3170 ng/mL
- Tmax ([1]; 30 mg/kg IP): 0.25 h
- half-life ([1]; 30 mg/kg IP): 1.6 h
- concentration at 0.25 h [1, 3]: 3170 ng/mL
- concentration at 0.5 h [1, 3]: 2420 ng/mL
- concentration at 1 h [1, 3]: 1580 ng/mL
- concentration at 2 h [1, 3]: 841 ng/mL
- concentration at 4 h [1, 3]: 317 ng/mL
- concentration at 8 h [1, 3]: 61.4 ng/mL
- MRT inf ([1]; 30 mg/kg IP): 1.98 h
- AUC(0-inf) ([1]; 50 mg/kg PO): 1910 ng·h/mL
- AUC(0-t) ([1]; 50 mg/kg PO): 1900 ng·h/mL
- Cmax ([1]; 50 mg/kg PO): 872 ng/mL
- Tmax ([1]; 50 mg/kg PO): 0.5 h
- half-life ([1]; 50 mg/kg PO): 0.851 h
- concentration at 0.25 h [1, 4]: 750 ng/mL
- concentration at 0.5 h [1, 4]: 872 ng/mL
- concentration at 1 h [1, 4]: 857 ng/mL
- concentration at 2 h [1, 4]: 350 ng/mL
- concentration at 4 h [1, 4]: 72 ng/mL
- concentration at 8 h [1, 4]: 2.67 ng/mL
- MRT inf ([1]; 50 mg/kg PO): 1.49 h
Structure (SMILES): Cc1n[nH]c2c1C(c1cc(C#CC3CN(C(=O)OC(C)(C)C)C3)cc(CO)c1)(C(C)C)C(C#N)=C(N)O2 (stereo not shown) [KDG-0271, tert-butyl 3-[2-(3-[6-amino-5-cyano-4-isopropyl-3-methyl-1H-pyrano[2,3-c]pyrazol-4-yl]-5-(hydroxymethyl)phenyl)ethynyl]azetidine-1-carboxylate]
- clinical symptoms ([1]; single dose 1 mg/kg IV, 50 mg/kg PO or 30 mg/kg IP, entire experiment): No abnormal clinical symptoms were observed

- AUC_%Extrap_obs ([2]; CD1 mice, 1 mg/kg IV): 3.44%
- AUClast/D ([2]; CD1 mice, 1 mg/kg IV): 76.6 kg·ng·h/mL/mg
- Cl_obs ([2]; CD1 mice, 1 mg/kg IV): 210 mL/min/kg
- Vss_obs ([2]; CD1 mice, 1 mg/kg IV): 8.80 L/kg
- Concentration IV_Mean ([2]; CD1 mice, plasma, 1 mg/kg IV, 8 h): BLOQ
- AUC_%Extrap_obs ([2]; male CD1 mice, 200 mg/kg IP): 6.08%
- AUClast/D ([2]; male CD1 mice, 200 mg/kg IP): 136 kg·ng·h/mL/mg
- F ([2]; male CD1 mice, 200 mg/kg IP): 183%
- AUC_%Extrap_obs ([2]; male CD1 mice, 200 mg/kg PO): 0.218%
- AUClast/D ([2]; male CD1 mice, 200 mg/kg PO): 16.9 kg·ng·h/mL/mg
- F ([2]; male CD1 mice, 200 mg/kg PO): 21.4%
- Concentration PO_Mean ([2]; male CD1 mice, plasma, 200 mg/kg PO, 24 h): BLOQ
- AUC(0-inf) [2, 5]: 79.3 ng·h/mL
- AUC(0-t) [2, 5]: 76.6 ng·h/mL
- C0 [2, 5]: 325 ng/mL
- half-life [2, 5]: 1.11 h
- MRT inf [2, 5]: 0.698 h
- concentration at 0.083 h ([2]; male, mouse, CD1 mice, plasma, 1 mg/kg IV, 0.083 h, read-out: Concentration IV_Mean): 186 ng/mL
- concentration at 0.25 h [2, 6]: 60.6 ng/mL
- concentration at 0.5 h [2, 6]: 24.9 ng/mL
- concentration at 1 h [2, 6]: 11.8 ng/mL
- concentration at 2 h [2, 6]: 4.86 ng/mL
- concentration at 4 h [2, 6]: 1.71 ng/mL
- AUC(0-inf) [2, 7]: 29000 ng·h/mL
- AUC(0-t) [2, 7]: 27200 ng·h/mL
- Cmax [2, 7]: 7520 ng/mL
- Tmax [2, 7]: 0.25 h
- half-life [2, 7]: 7.88 h
- MRT inf [2, 7]: 6.33 h
- AUC(0-inf) [2, 8]: 3400 ng·h/mL
- AUC(0-t) [2, 8]: 3390 ng·h/mL
- Cmax [2, 8]: 719 ng/mL
- Tmax [2, 8]: 2 h
- half-life [2, 8]: 1.69 h
- MRT inf [2, 8]: 3.53 h
- concentration at 0.25 h [2, 9]: 7520 ng/mL
- concentration at 0.5 h [2, 9]: 6170 ng/mL
- concentration at 1 h [2, 9]: 5460 ng/mL
- concentration at 2 h [2, 9]: 3910 ng/mL
- concentration at 4 h [2, 9]: 2230 ng/mL
- concentration at 8 h ([2]; mouse, male CD1 mice, plasma, 200 mg/kg IP, 8 h, read-out: Concentration IP_Mean): 633 ng/mL
- concentration at 16 h [2, 9]: 247 ng/mL
- concentration at 24 h ([2]; mouse, male CD1 mice, plasma, 200 mg/kg IP, 24 h, read-out: Concentration IP_Mean): 155 ng/mL
- concentration at 0.25 h [2, 10]: 215 ng/mL
- concentration at 0.5 h [2, 10]: 347 ng/mL
- concentration at 1 h [2, 10]: 475 ng/mL
- concentration at 2 h [2, 10]: 719 ng/mL
- concentration at 4 h [2, 10]: 417 ng/mL
- concentration at 8 h ([2]; mouse, male CD1 mice, plasma, 200 mg/kg PO, 8 h, read-out: Concentration PO_Mean): 84.3 ng/mL
- concentration at 16 h [2, 10]: 3.04 ng/mL
Structure (SMILES): Cc1n[nH]c2c1C(c1cc(C#C[C@H]3C[C@@H](NC(=O)OC(C)(C)C)C3)cc(CO)c1)(C(C)C)C(C#N)=C(N)O2 (stereo partly shown) [KDG-0388, tert-butyl N-[(1s,3s)-3-[2-(3-[6-amino-5-cyano-4-isopropyl-3-methyl-1H-pyrano[2,3-c]pyrazol-4-yl]-5-(hydroxymethyl)phenyl)ethynyl]cyclobutyl]carbamate]
- clinical symptoms ([2]; male CD1 mice, single dose 200 mg/kg PO or 200 mg/kg IP, entire experiment): No abnormal clinical symptoms were observed

Reference: patent US20230382920A1, “SHMT Inhibitors” (The Trustees of Princeton University, priority 2020, published 2023)
